This is an account of results in US20230255939A1, “Antimicrobial Agent for Non-Human Animal” (ISHIHARA SANGYO KAISHA, LTD, priority 2020, published 2023).

Holding throughout (format): cell-based
Assay [1] concerns M. furfur (IMF55951 strain). Put plainly: Antimicrobial activity against microbes of genus Malassezia: colony formation inhibition (Test Example 2). The note with it: 1 min, final concentration 500 ppm, 1 minute contact, read-out: Colony formation inhibition rate (%). The procedure:
(§1) The Malassezia microbe (Malassezia pachydermatis) cultured for 5 to 7 days in a Sabouraud medium (1% peptone, 4% dextrin, 1.5% agar) supplemented with 0.5% of Tween 40 (polyoxyethylene sorbitan monopalmitate: manufactured by Kanto Chemical Co., Inc.) was suspended in physiological saline and a suspension thereof was prepared in such a way as to have an absorbance of 0.25 at 550 nm. Thereto, the test compound dissolved in DMSO was added in such a way as to provide a final concentration of 500 ppm, and after 1 minute, 10 µL of the suspension and 10 mL of physiological saline were placed in a syringe and stirred, and the syringe was connected to a 37 mm Quality Monitor (manufactured by Pall Corporation) followed by filtration and washing. The membrane filter was impregnated as it was with a Sabouraud medium supplemented with 1% of Tween80 (polyoxyethylene sorbitan monooleate: manufactured by Kanto Chemical Co., Ltd.) and subjected to culturing at 32° C. for 72 hours, the number of colonies formed there (number of colonies in the inventive plot) and the number of colonies in a solvent to which the test compound was not added (the number of colonies in the non-agent treated plot) were measured, and the colony formation inhibition rate (%) was determined according to the following expression. Colony formation inhibition rate (%) = [(number of colonies in non-agent treated plot - number of colonies in inventive plot)/number of colonies in non-agent treated plot] × 100 Test compound: Compound No. 1 (final concentration of 500 ppm) Test microbial strains: Malassezia pachydermatis (IFM56528 strain), M. furfur (IMF55951 strain), M. sympodialis (IMF48588 strain), M. globosa (IMF51946 strain), and M. restricta (IMF55992 strain) The colony formation inhibition rate for each of the test strains was determined by the same method as in Test Example 1.

Assay [2] concerns M. restricta (IMF55992 strain). Described as above. The following applies: 1 min, final concentration 500 ppm, 1 minute contact, read-out: Colony formation inhibition rate (%). As to the method:
as §1

Assay [3] concerns M. globosa (IMF51946 strain). Described as above. The note with it: 1 min, final concentration 500 ppm, 1 minute contact, read-out: Colony formation inhibition rate (%). The procedure:
as §1

Assay [4] has as its system M. sympodialis (IMF48588 strain). The assay is described as above. The note with it: 1 min, final concentration 500 ppm, 1 minute contact, read-out: Colony formation inhibition rate (%). As to the method: as §1
In assay [5] the test system is Microsporum canis (TIMM20080 strain). The assay is described as follows: Antimicrobial activity test, minimum inhibitory concentration (Test Example 4). The note with it: Sabouraud media, 28° C. for 72 hours. As to the method: Test Example 4: Antimicrobial Activity Test Test Compound: Compound No. 1
Test Microbial Strain: Microsporum Canis (TIMM20080 Strain)
(§2) The microbial strain was cultured in a Sabouraud medium containing 500 µg/mL of cycloheximide and 50 µg/mL of chloramphenicol at 28° C. for 8 days, then spores were collected in physiological saline containing Tween80 (0.05% (v/v)), this was filtered through a cell strainer (φ40 µm), the spores were recovered from the filtrate by centrifugation (3500 rpm, 5 minutes) and washed twice with physiological saline, and then a spore suspension was prepared (1 × 10^7 spores/mL). 10 µL of the spore suspension was inoculated into Sabouraud media to which compound No. 1 dissolved in DMSO was added to have various concentrations. After culturing at 28° C. for 72 hours, the amount of microbial growth was investigated, and the minimum inhibitory concentration was determined.

For assay [6], the system named is Arthroderma vanbreuseghemii (TIMM2789). Put plainly: Antifungal activity test, minimum inhibitory concentration (Test Example 9). The note with it: Trichophyton mentagrophytes, Sabouraud media, 28° C. for 72 hours, read-out: Minimum inhibitory concentration (MIC100). As to the method:
as §2, with “Test Example 9: Antifungal Activity Test Test Compound: Compound No. 1 Test Microbial Strain: Arthroderma Vanbreuseghemii (TIMM2789) The” for “The”, “concentrations.” for “concentrations. After culturing at 28° C. for 72 hours, the amount of microbial growth was investigated, and the minimum inhibitory concentration was determined.”

Assay [7] concerns Staphylococcus pseudointermedius (JCM 17571). The assay is described as follows: Antimicrobial activity test, minimum bactericidal concentration after 1 minute contact (Test Example 6). The note with it: JCM17571, S. pseudintermedius JCM 17571, then LB medium 30° C. for 72 hours, read-out: Minimum bactericidal concentration (MBC100). The procedure:
Test Example 6: Antimicrobial Activity test Test Compound: Compound No. 6 Test Microbial Strain: Staphylococcus Pseudointermedius (JCM 17571) The staphylococcus (Staphylococcus pseudointermedius) cultured for 24 hours on a Luria Broth (LB) agar medium plate (peptone, yeast extract, sodium chloride, agar, Invitrogen) was suspended in physiological saline, and a suspension thereof was prepared in such a way as to have an absorbance of 0.025 at 600 nm. Thereto, the test compound dissolved in DMSO was added in such a way as to provide a final concentration of 200, 100, 50, or 25 ppm, and after 1 minute, 10 µL of the suspension and 10 mL of physiological saline were placed in a syringe and stirred, and the syringe was connected to a 37 mm Quality Monitor (manufactured by Pall Corporation) followed by filtration and washing twice with 10 mL of physiological saline. The membrane filter was impregnated as it was with an LB medium and subjected to culturing at 30° C. for 72 hours, the presence or absence of colony growth was investigated, and the minimum bactericidal concentration (MBC100) was determined.

For assay [8], the system named is Microsporum canis (NBRC7863). The assay is described as follows: Antimicrobial activity test, minimum inhibitory concentration (Test Example 5). The following applies: Sabouraud media, 25° C. for 120 hours. The procedure:
Test Example 5: Antimicrobial Activity Test Test Compound: Compound No. 6 Test Microbial Strain: Microsporum Canis (NBRC7863) The strain was cultured in a Sabouraud medium and then suspended in PBS containing Tween80 (1% (V/V)), the resulting suspension was filtered through a cell strainer (φ40 µm), spores were recovered from the filtrate by centrifugation (3500 rpm, 5 minutes) and washed twice with physiological saline, and then a spore suspension was prepared (1 × 10^6 spores/mL). 50 µL of the spore suspension was inoculated into Sabouraud media to which compound No. 6 dissolved in DMSO was added to have various concentrations. After culturing at 25° C. for 120 hours, the presence or absence of microbial growth was investigated, and the minimum inhibitory concentration was determined.

Values after ≈ are worked out from the molar mass of the structure shown.

What is called inhibition is how much of the control response was suppressed.

As for `Cc1ccc(-c2nc(C#N)[nH]c2Cl)cc1` [Compound No. 1, 5-Chloro-4-(4-methylphenyl)-1H-imidazole-2-carbonitrile], the inhibition at 500 ppm was determined as 100% in assay [1], 100% in assay [2], 97% in assay [3] and 100% in assay [4]. Also, the MIC in assay [5] and in assay [6] was 10 µg/mL (≈ 45.9 µM) throughout.

With `Cc1ccc(-c2nc(C#N)[nH]c2Cl)cc1Cl` [Compound No. 6, 5-chloro-4-(3-chloro-4-methylphenyl)-1H-imidazole-2-carbonitrile], in assay [7], the MBC stood at 50 µg/mL (≈ 198 µM). Further, the MIC in assay [8] was 125 µg/mL (≈ 496 µM).
